System: primary human hepatocytes
Experiment: Metabolic stability in cryopreserved primary human hepatocytes
Assay type: in vitro ADME
Conditions: 4 h incubation with human hepatocytes, compound concentration 5 μg/mL, 37° C., LC/MS
Protocol: The metabolic stability for compounds of the present invention was determined by using cryopreserved primary human hepatocytes. 1×10^6 cells/mL were incubated in the absence and the presence of 5 and 25 μg/mL of the test compounds at 37° C., 5% CO2 for 4 hours. To evaluate the in vitro degradation under assay conditions, a sample of each test compound was incubated also in the absence of hepatocytes. The incubation was stopped by freezing the reaction mixture. After ultrafiltration and washing of the filter with acetonitrile, the sample solution was analyzed for parent compound disappearance or metabolite appearance using LC/MS (ion trap). The metabolic stability value corresponds to the detected parent compound in % after incubation.

Row | Compound | metabolic stability value: detected parent compound in % after incubation [%]
1 | 14-O-{[(1R, 3R)-3-Amino-cyclohexylsulfanyl]-acetyl}-mutilin hydrochloride and the (1S, 3S)diastereomer hydrochloride thereof | 24
2 | C=CC1(C)CC(OC(=O)CSC2CC(N)CCC2O)C2(C)C(C)CCC3(CCC(=O)C32)C(C)C1O.Cl (mixture of isomers) [Example 2, 14-O-{[(1R, 2R, 5S)-5-Amino-2-hydroxy-cyclohexylsulfanyl]-acetyl}-mutilin hydrochloride+(1S, 2S, 5R)diastereomer hydrochloride] | 66

Source: US8153689B2, “Pleuromutilin derivatives for the treatment of diseases mediated by microbes” (Nabriva Therapeutics AG, priority 2007, dated 2012)
